From patent US20060069132A1, “Azolecarboxamide herbicides” (priority 2004, published 2006)
Read-outs that look alike come from different tables or passages of the source.

Legend:
corn = experiment: Test B pre-/postemergence herbicide test; format: in vivo, Zea mays
Outline: (§1)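 Plants compared with untreated controls 13–15 days post-treatment and given a visual 0–100 injury score. Applications: preemergence to seeds; postemergence at 1- to 4-leaf (2–18 cm); paddy species flooded, 2-leaf stage. Vehicle non-phytotoxic, surfactant included.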

morningglory = experiment: Test B pre-/postemergence herbicide test; format: in vivo, Ipomoea coccinea; settings: for pest or weed control at 500 g/ha: 500 g ai/ha
Outline: (§2)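 Greenhouse pot assay with simultaneous preemergence (treated seed) and postemergence (2–18 cm seedlings) applications of surfactant-containing, non-phytotoxic solvent formulations. Response scored visually 13–15 days later on a 0–100 scale, 100 meaning complete control.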

Surinam grass = experiment: Test B pre-/postemergence herbicide test; format: in vivo, Urochloa decumbens; settings: for pest or weed control at 500 g/ha: 500 g ai/ha
Outline: as §1

wheat = experiment: Test B postemergence herbicide test; format: in vivo, Triticum aestivum; settings: Triticum aestivum, post-emergence, 336 h, read-out: Wheat plant response rating
Outline: (§3)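 Postemergence plants were sprayed with formulated test chemicals at 2 to 18 cm height (1- to 4-leaf stage); paddy species were grown to the 2-leaf stage. After 13 to 15 days in a greenhouse, injury was rated visually against untreated controls on a 0–100 scale (0 = no effect, 100 = complete control).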

ducksalad = experiment: Test B flooded paddy test; format: in vivo, Heteranthera limosa; settings: Heteranthera limosa, 336 h, 1000 g ai/ha, scale 0 to 100 (0 no effect, 100 complete control), read-out: Ducksalad plant response rating
Outline: (§4)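 Greenhouse test; postemergence application to plants at 1–4 leaves (2–18 cm); paddy species at 2 leaves; evaluated visually vs controls at 13–15 days; scale 0–100 (100 = complete control).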

wild oat = experiment: Test B postemergence herbicide test; format: in vivo, Avena fatua; settings: Avena fatua, post-emergence, 336 h, read-out: Oat, Wild plant response rating
Outline: as §3

cocklebur = experiment: Test B pre-/postemergence herbicide test; format: in vivo, Xanthium strumarium; settings: for pest or weed control at 500 g/ha: 500 g ai/ha
Outline: as §2

rice = experiment: Test B flooded paddy test; format: in vivo, Oryza sativa; settings: Oryza sativa, 336 h, 1000 g ai/ha, scale 0 to 100 (0 no effect, 100 complete control), read-out: Rice plant response rating
Outline: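 Formulated test chemicals went onto postemergence plants measuring 2 to 18 cm, at one to four leaves. For the paddy assay, species had reached two leaves. Scoring took place 13–15 days later by eye, relative to untreated plants, using 0 for no effect up to 100 for full control.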

giant foxtail = experiment: Test B pre-/postemergence herbicide test; format: in vivo, Setaria faberi; settings: for pest or weed control at 500 g/ha: 500 g ai/ha
Outline: as §1

barnyardgrass = experiment: Test B pre-/postemergence herbicide test; format: in vivo, Echinochloa crus-galli; settings: for pest or weed control at 500 g/ha: 500 g ai/ha
Outline: as §2

velvetleaf = experiment: Test B pre-/postemergence herbicide test; format: in vivo, Abutilon theophrasti
Outline: as §1

blackgrass = experiment: Test B postemergence herbicide test; format: in vivo, Alopecurus myosuroides; settings: Alopecurus myosuroides, post-emergence, 336 h, read-out: Blackgrass plant response rating
Outline: as §4

pigweed = experiment: Test B pre-/postemergence herbicide test; format: in vivo, Amaranthus retroflexus; settings: for pest or weed control at 500 g/ha: 500 g ai/ha
Outline: as §1

[1] = test system: small flower umbrella sedge; experiment: Test B flooded paddy test; format: in vivo, Cyperus difformis; settings: Cyperus difformis, 336 h, 1000 g ai/ha, scale 0 to 100 (0 no effect, 100 complete control), read-out: Sedge, Umbrella plant response rating
Outline: as §4

large crabgrass = experiment: Test B pre-/postemergence herbicide test; format: in vivo, Digitaria sanguinalis; settings: for pest or weed control at 500 g/ha: 500 g ai/ha
Outline: as §1

[2] = 125 g ai/ha, 0 is no effect, 100 is complete control, preemergence
[3] = 125 g ai/ha, visual rating, scale 0 (no effect) to 100 (complete control)
[4] = postemergence, 500 g ai/ha, scale 0 to 100, 0 is no effect, 100 is complete control

CCOC(=O)c1cccc(NC(=O)c2nn(C(C)(C)C)nc2CC)c1 [Compound 360, ethyl 3-[[[2-(1,1-dimethylethyl)-5-ethyl-2H-1,2,3-triazol-4-yl]carbonyl]amino]benzoate]
Plant response rating (0 to 100 scale), Corn (corn; [2]): 10
plant injury at 125 g/ha (corn; Zea mays, post-emergence, 125 g ai/ha, visual rating, scale 0 (no effect) to 100 (complete control), read-out: Corn plant response rating): 10%
plant injury at 500 g/ha (corn; Zea mays, post-emergence, postemergence, 500 g ai/ha, scale 0 to 100, 0 is no effect, 100 is complete control, read-out: Corn plant response rating): 20%
Corn plant response rating (crop injury, 0 = no effect, 100 = complete kill) at 500 g/ha (corn; Zea mays, pre-emergence, 500 g ai/ha, visual rating, 0 = no effect, 100 = complete control): 40%
Plant response rating (0 to 100 scale), Morningglory (morningglory; [2]): 0
pest or weed control at 125 g/ha (morningglory; Ipomoea, post-emergence, 336 h, 125 g ai/ha, visual rating, scale 0 (no effect) to 100 (complete control), read-out: Morningglory plant response rating): 0%
pest or weed control at 500 g/ha (morningglory; Ipomoea, post-emergence, 336 h, postemergence, scale 0 to 100, 0 is no effect, 100 is complete control, read-out: Morningglory plant response rating): 10%
pest or weed control at 500 g/ha (morningglory; Ipomoea, pre-emergence, 336 h, visual rating, 0 = no effect, 100 = complete control, read-out: Plant response rating, Morningglory): 10%
Plant response rating (0 to 100 scale), Surinam Grass (Surinam grass; [2]): 20
pest or weed control at 125 g/ha (Surinam grass; Urochloa decumbens, post-emergence, 125 g ai/ha, visual rating, scale 0 (no effect) to 100 (complete control), read-out: Surinam Grass plant response rating): 10%
pest or weed control at 500 g/ha (Surinam grass; Urochloa decumbens, post-emergence, postemergence, scale 0 to 100, 0 is no effect, 100 is complete control, read-out: Surinam Grass plant response rating): 30%
pest or weed control at 500 g/ha (Surinam grass; Urochloa decumbens, pre-emergence, visual rating, 0 = no effect, 100 = complete control, read-out: Plant response rating, Surinam Grass): 50%
plant injury at 125 g/ha (wheat; [3]): 30%
plant injury at 500 g/ha (wheat; [4]): 40%
pest or weed control at 1000 g/ha (ducksalad): 70%
pest or weed control at 125 g/ha (wild oat; [3]): 40%
pest or weed control at 500 g/ha (wild oat; [4]): 60%
Plant response rating (0 to 100 scale), Cocklebur (cocklebur; [2]): 0
pest or weed control at 125 g/ha (cocklebur; Xanthium strumarium, post-emergence, 125 g ai/ha, visual rating, scale 0 (no effect) to 100 (complete control), read-out: Cocklebur plant response rating): 10%
pest or weed control at 500 g/ha (cocklebur; Xanthium strumarium, post-emergence, postemergence, scale 0 to 100, 0 is no effect, 100 is complete control, read-out: Cocklebur plant response rating): 20%
pest or weed control at 500 g/ha (cocklebur; Xanthium strumarium, pre-emergence, visual rating, 0 = no effect, 100 = complete control, read-out: Plant response rating, Cocklebur): 0%
plant injury at 1000 g/ha (rice): 50%
Plant response rating (0 to 100 scale), Foxtail, Giant (giant foxtail; [2]): 50
pest or weed control at 125 g/ha (giant foxtail; Setaria faberi, post-emergence, 336 h, 125 g ai/ha, visual rating, scale 0 (no effect) to 100 (complete control), read-out: Foxtail, Giant plant response rating): 30%
pest or weed control at 500 g/ha (giant foxtail; Setaria faberi, post-emergence, 336 h, postemergence, scale 0 to 100, 0 is no effect, 100 is complete control, read-out: Foxtail, Giant plant response rating): 50%
pest or weed control at 500 g/ha (giant foxtail; Setaria faberi, pre-emergence, 336 h, visual rating, 0 = no effect, 100 = complete control, read-out: Plant response rating, Foxtail, Giant): 90%
Plant response rating (0 to 100 scale), Barnyardgrass (barnyardgrass; [2]): 10
pest or weed control at 125 g/ha (barnyardgrass; Echinochloa crus-galli, post-emergence, 125 g ai/ha, visual rating, scale 0 (no effect) to 100 (complete control), read-out: Barnyardgrass plant response rating): 0%
pest or weed control at 500 g/ha (barnyardgrass; Echinochloa crus-galli, post-emergence, postemergence, scale 0 to 100, 0 is no effect, 100 is complete control, read-out: Barnyardgrass plant response rating): 30%
pest or weed control at 500 g/ha (barnyardgrass; Echinochloa crus-galli, pre-emergence, visual rating, 0 = no effect, 100 = complete control, read-out: Plant response rating, Barnyardgrass): 40%
Plant response rating (0 to 100 scale), Velvetleaf (velvetleaf; [2]): 20
pest or weed control at 125 g/ha (velvetleaf; Abutilon theophrasti, post-emergence, 336 h, 125 g ai/ha, visual rating, scale 0 (no effect) to 100 (complete control), read-out: Velvetleaf plant response rating): 40%
pest or weed control at 500 g/ha (velvetleaf; Abutilon theophrasti, post-emergence, 336 h, postemergence, 500 g ai/ha, scale 0 to 100, 0 is no effect, 100 is complete control, read-out: Velvetleaf plant response rating): 50%
pest or weed control at 125 g/ha (blackgrass; [3]): 30%
pest or weed control at 500 g/ha (blackgrass; [4]): 50%
Plant response rating (0 to 100 scale), Pigweed (pigweed; [2]): 20
pest or weed control at 125 g/ha (pigweed; Amaranthus retroflexus, post-emergence, 336 h, 125 g ai/ha, visual rating, scale 0 (no effect) to 100 (complete control), read-out: Pigweed plant response rating): 30%
pest or weed control at 500 g/ha (pigweed; Amaranthus retroflexus, post-emergence, 336 h, postemergence, scale 0 to 100, 0 is no effect, 100 is complete control, read-out: Pigweed plant response rating): 40%
pest or weed control at 500 g/ha (pigweed; Amaranthus retroflexus, pre-emergence, 336 h, visual rating, 0 = no effect, 100 = complete control, read-out: Plant response rating, Pigweed): 50%
pest or weed control at 1000 g/ha [1]: 90%
Plant response rating (0 to 100 scale), Crabgrass, Large (large crabgrass; [2]): 40
pest or weed control at 125 g/ha (large crabgrass; Digitaria sanguinalis, post-emergence, 125 g ai/ha, visual rating, scale 0 (no effect) to 100 (complete control), read-out: Crabgrass, Large plant response rating): 10%
pest or weed control at 500 g/ha (large crabgrass; Digitaria sanguinalis, post-emergence, postemergence, scale 0 to 100, 0 is no effect, 100 is complete control, read-out: Crabgrass, Large plant response rating): 20%
pest or weed control at 500 g/ha (large crabgrass; Digitaria sanguinalis, pre-emergence, visual rating, 0 = no effect, 100 = complete control, read-out: Plant response rating, Crabgrass, Large): 80%
